Literature values as cited in PubChem BioAssay AID1259409 (Chemical Carcinogenesis Research Information System (CCRIS), 2018).

Test system: rodent chemically induced tumor inhibition, incidence and multiplicity
Test: CCRIS tumor inhibitor studies
Conditions: Route [Inhibitor]: ORAL

Cc1c(C)c2c(c(C)c1O)CC[C@@](C)(CCC[C@H](C)CCC[C@H](C)CCCC(C)C)O2
tumour outcome (control, treated, inhibition, significance) (Carcinogen: 3,2-DIMETHYL-4-AMINOBIPHENYL, 13394-86-0, Dose [Inhibitor]: 0, 1% IN BASAL DIET BEGINNING POST CARCINOGEN TREATMENT AND CONTINUING FOR 40 WK (STUDY DURATION: 60 WK), Species: RAT, Strain/Sex: F344/MALE, Target Tissue: Type of Lesion: PANCREAS: ACINAR CELL NODULE, Dose [Carcinogen]: 50 MG/KG 1/2 WK FOR 20 WK TO RATS MAINTAINED ON ETHINYL ESTRADIOL CONTAINING DIET (0.75 PPM) FOR 1 WK CYCLED WITH ETHINY, Promoter: ETHINYL ESTRADIOL, 57-63-6): 4/10 (40%), 5/12 (42%), -5%, not significant | tumour outcome (control, treated, inhibition, significance) (Carcinogen: 3,2-DIMETHYL-4-AMINOBIPHENYL, 13394-86-0, Dose [Inhibitor]: 0, 1% IN BASAL DIET BEGINNING POST CARCINOGEN TREATMENT AND CONTINUING FOR 40 WK (STUDY DURATION: 60 WK), Species: RAT, Strain/Sex: F344/MALE, Target Tissue: Type of Lesion: PROSTATE: CARCINOMA, Dose [Carcinogen]: 50 MG/KG 1/2 WK FOR 20 WK TO RATS MAINTAINED ON ETHINYL ESTRADIOL CONTAINING DIET (0.75 PPM) FOR 1 WK CYCLED WITH ETHINY, Promoter: ETHINYL ESTRADIOL, 57-63-6): 5/10 (50%), 6/12 (50%), 0%, not significant | tumour outcome (control, treated, inhibition, significance) (Carcinogen: 4-NITROQUINOLINE 1-OXIDE, 56-57-5, Dose [Inhibitor]: 25.5, 550.9 MG/KG IN DIET FOR DURATION OF STUDY (STUDY DURATION: 23 WK), Species: MOUSE, Strain/Sex: DDY/MALE, Target Tissue: Type of Lesion: LUNG: TUMOR, Dose [Carcinogen]: 10 MG/KG BW SUSPENDED IN OLIVE OIL AND CHOLESTEROL (20:1, W/W) ONCE, Promoter: NONE USED): 6/11 (55%), 4/11 (36%), 36%, not significant | tumour outcome (control, treated, inhibition, significance) (Carcinogen: 4-NITROQUINOLINE 1-OXIDE, 56-57-5, Dose [Inhibitor]: EXCESSIVE VITAMIN E (DOSE NOT STATED) IN THE DIET FOR 4 WK POST CARCINOGEN DOSE (STUDY DURATION: 23 WK), Species: MOUSE, Strain/Sex: DDY/MALE, Target Tissue: Type of Lesion: LUNG: TUMOR, Dose [Carcinogen]: 10 MG/KG BW ONCE, Promoter: GLYCEROL, 56-81-5): 9/11 (82%), 5/11 (45%), 45%, not calculated | tumour outcome (control, treated, inhibition, significance) (Carcinogen: 4-NITROQUINOLINE 1-OXIDE, 56-57-5, Dose [Inhibitor]: EXCESSIVE VITAMIN E (DOSE NOT STATED) IN THE DIET FOR 23 WK POST CARCINOGEN DOSE (STUDY DURATION: 23 WK), Species: MOUSE, Strain/Sex: DDY/MALE, Target Tissue: Type of Lesion: LUNG: TUMOR, Dose [Carcinogen]: 10 MG/KG BW ONCE, Promoter: GLYCEROL, 56-81-5): 9/11 (82%), 2/9 (22%), 73%, not calculated | tumour outcome (control, treated, inhibition, significance) (Carcinogen: 7,12-DIMETHYLBENZ[A]ANTHRACENE, 57-97-6, Dose [Inhibitor]: 0, 3.349 UMOL/G IN DIET FOR DURATION OF STUDY (STUDY DURATION: 18 WK), Species: RAT, Strain/Sex: SPRAGUE-DAWLEY/FEMALE, Target Tissue: Type of Lesion: MAMMARY GLAND: TUMOR, Dose [Carcinogen]: 50 MG/KG IN SESAME OIL ONCE, Promoter: NONE USED): 88%, 79%, 10%, not significant | tumour outcome (control, treated, inhibition, significance) (Carcinogen: 7,12-DIMETHYLBENZ[A]ANTHRACENE, 57-97-6, Dose [Inhibitor]: 0.2% IN DIET FROM WEANING ONWARD (STUDY DURATION: 6 MO AFTER CARCINOGEN ADMINISTRATION), Species: RAT, Strain/Sex: SPRAGUE-DAWLEY/FEMALE, Target Tissue: Type of Lesion: MAMMARY GLAND: TUMOR, Dose [Carcinogen]: 10 MG/RAT IN 1 ML STRIPPED CORN OIL SINGLE DOSE ON D 50 FOLLOWING 24 HR FASTING PERIOD, Promoter: NONE USED): 70%, 70%, 0%, not calculated | tumour outcome (control, treated, inhibition, significance) (Carcinogen: 7,12-DIMETHYLBENZ[A]ANTHRACENE, 57-97-6, Dose [Inhibitor]: 0.2% IN DIET FROM WEANING ONWARD (STUDY DURATION: 6 MO AFTER CARCINOGEN ADMINISTRATION), Species: RAT, Strain/Sex: SPRAGUE-DAWLEY/FEMALE, Target Tissue: Type of Lesion: MAMMARY GLAND: TUMOR, Dose [Carcinogen]: 10 MG/RAT IN 1 ML STRIPPED CORN OIL, SINGLE DOSE ON D 5 FOLLOWING 24 HR FASTING PERIOD, Promoter: NONE USED): 40%, 37%, 8%, not calculated | tumour outcome (control, treated, inhibition, significance) (Carcinogen: 7,12-DIMETHYLBENZ[A]ANTHRACENE, 57-97-6, Dose [Inhibitor]: 0.2% IN DIET FROM WEANING ONWARD (STUDY DURATION: 6 MO AFTER CARCINOGEN ADMINISTRATION), Species: RAT, Strain/Sex: SPRAGUE-DAWLEY/FEMALE, Target Tissue: Type of Lesion: MAMMARY GLAND: TUMOR, Dose [Carcinogen]: 10 MG/RAT IN 1 ML STRIPPED CORN OIL, SINGLE DOSE ON D 50 FOLLOWING 24 HR FASTING PERIOD, Promoter: NONE USED): 100%, 100%, 0%, not calculated | tumour outcome (control, treated, inhibition, significance) (Carcinogen: 7,12-DIMETHYLBENZ[A]ANTHRACENE, 57-97-6, Dose [Inhibitor]: 0.2% IN DIET, UNSATURATED FAT THROUGHOUT THE EXPERIMENT, (STUDY DURATION: 32 WK), Species: RAT, Strain/Sex: SPRAGUE-DAWLEY/FEMALE, Target Tissue: Type of Lesion: MAMMARY GLAND: PARENCHYMAL CARCINOMA, Dose [Carcinogen]: 10 MG IN 1 ML CORN OIL AT 50 D OF AGE CELL ONCE, Promoter: NONE USED): 100%, 100%, 0%, not calculated | tumour outcome (control, treated, inhibition, significance) (Carcinogen: 7,12-DIMETHYLBENZ[A]ANTHRACENE, 57-97-6, Dose [Inhibitor]: 0.2% IN HIGH POLYUNSATURATED FAT DIET DAILY STARTING 29 D BEFORE CARCINOGEN TREATMENT AND CONTINUING FOR DURATION OF STU, Species: RAT, Strain/Sex: SPRAGUE-DAWLEY/FEMALE, Target Tissue: Type of Lesion: MAMMARY GLAND: ADENOCARCINOMA, Dose [Carcinogen]: 10 MG IN 1 ML STRIPPED CORN OIL ONCE AT 50 D OF AGE, Promoter: NONE USED): 100%, 100%, 0%, not calculated
